From the supplement of paper PMC10307832

How the values were obtained:
Test in all cases: relative viability (nuclei count vs DMSO), 5 days (fraction); higher = more cells survive
[1] = compound: CN1CCN(CC1)C2=CC(=C(C=C2)NC3=NC=C4C(=N3)N(C5=CC=CC=C5C(=O)N4C)C)OC [XMD8-85] + C[C@@H](Oc1cc(-c2cnn(C3CCNCC3)c2)cnc1N)c1c(Cl)ccc(F)c1Cl [Crizotinib] (partner 1 µM)
Procedure, shortened: (§1)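 Cells from lung cancer lines were seeded into 1536-well plates and, one day later, dosed by pin tool. Treatments were either a single drug or a fixed dose of an anchor drug with five library-drug doses (not always all listed) in √10 steps. After 5 days, nuclei were stained in a one-step fixation (final 0.05% Triton X-100, 1% formaldehyde, 1 ug/ml Hoechst) and counted on 4× images, and relative viability is the treated-to-vehicle nuclei ratio, as the median of duplicate plates.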

[2] = compound: O=C(O)C(Cc1ccccc1[N+](=O)[O-])=NNc1nc(-c2ccc(Cl)c(Cl)c2)cs1 (mixture of isomers) [4EGI-1] + CS(=O)(=O)N1CCN(Cc2cc3nc(-c4cccc5[nH]ncc45)nc(N4CCOCC4)c3s2)CC1 [Pictilisib] (partner 1 µM)
Procedure, shortened: as §1

[3] = compound: O=C(O)C(Cc1ccccc1[N+](=O)[O-])=NNc1nc(-c2ccc(Cl)c(Cl)c2)cs1 (mixture of isomers) [4EGI-1] + CCNC(=O)c1noc(-c2cc(C(C)C)c(O)cc2O)c1-c1ccc(CN2CCOCC2)cc1 [Luminespib] (partner 0.01 µM)
Procedure, shortened: as §1

[4] = compound: O=C(O)C(Cc1ccccc1[N+](=O)[O-])=NNc1nc(-c2ccc(Cl)c(Cl)c2)cs1 (mixture of isomers) [4EGI-1] + O=C(c1cc(Cc2n[nH]c(=O)c3ccccc23)ccc1F)N1CCN(C(=O)C2CC2)CC1 [Olaparib] (partner 8 µM)
Procedure, shortened: as §1

## NCI-H1792
[1]; first compound 0.08 µM
  relative viability: 0.883
[1]; first compound 0.253 µM
  relative viability: 0.822
[1]; first compound 2.53 µM
  relative viability: 0.852
[1]; first compound 8 µM
  relative viability: 0.905
[2]; first compound 0.5 µM
  relative viability: 0.321
[2]; first compound 1.581 µM
  relative viability: 0.209
[2]; first compound 5 µM
  relative viability: 0.257
[2]; first compound 15.81 µM
  relative viability: 0.214
[2]; first compound 50 µM
  relative viability: 0.145
[3]; first compound 0.5 µM
  relative viability: 0.917
[3]; first compound 1.581 µM
  relative viability: 0.414
[3]; first compound 5 µM
  relative viability: 0.411
[3]; first compound 15.81 µM
  relative viability: 0.37
[3]; first compound 50 µM
  relative viability: 0.236
[4]; first compound 0.5 µM
  relative viability: 0.412
[4]; first compound 1.581 µM
  relative viability: 0.496
[4]; first compound 5 µM
  relative viability: 0.359
[4]; first compound 15.81 µM
  relative viability: 0.36
[4]; first compound 50 µM
  relative viability: 0.165
